# How the values were obtained:
# KRas^G12V = target: T1, KRas^G12V (Homo sapiens, UniProt P01116, G12V); assay: KRas binding assay (TR-FRET tracer displacement), KRas G12V
# T1 construct: Biotinylated KRas (corresponding to amino acids 1-169, produced at Accelegan Inc.); biotin (biotinylated); purchased Accelegan Inc
# KRas^G12D = target: T2, KRas^G12D (Homo sapiens, UniProt P01116, G12D); assay: KRas binding assay (TR-FRET tracer displacement), KRas G12D
# T2 construct: Biotinylated KRas (corresponding to amino acids 1-169, produced at Accelegan Inc.); biotin (biotinylated); purchased Accelegan Inc
# T2 sequence (P01116 1-169 isoform P01116-2 G12D): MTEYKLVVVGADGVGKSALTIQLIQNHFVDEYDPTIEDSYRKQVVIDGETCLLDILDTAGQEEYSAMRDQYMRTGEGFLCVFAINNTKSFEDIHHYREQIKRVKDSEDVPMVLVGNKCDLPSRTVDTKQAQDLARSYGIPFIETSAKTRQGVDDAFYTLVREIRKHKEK
# KRas^G12R = target: T3, KRas^G12R (Homo sapiens, UniProt P01116, G12R); assay: KRas binding assay (TR-FRET tracer displacement), KRas G12R
# T3 construct: Biotinylated KRas (corresponding to amino acids 1-169, produced at Accelegan Inc.); biotin (biotinylated); purchased Accelegan Inc
# T3 sequence (P01116 1-169 isoform P01116-2 G12R): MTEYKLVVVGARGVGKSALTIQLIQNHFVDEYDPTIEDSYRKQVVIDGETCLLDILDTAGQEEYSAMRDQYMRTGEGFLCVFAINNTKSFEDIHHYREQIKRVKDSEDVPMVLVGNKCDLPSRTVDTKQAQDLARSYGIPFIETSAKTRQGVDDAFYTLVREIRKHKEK
# T1 sequence (P01116 1-169 isoform P01116-2 G12V): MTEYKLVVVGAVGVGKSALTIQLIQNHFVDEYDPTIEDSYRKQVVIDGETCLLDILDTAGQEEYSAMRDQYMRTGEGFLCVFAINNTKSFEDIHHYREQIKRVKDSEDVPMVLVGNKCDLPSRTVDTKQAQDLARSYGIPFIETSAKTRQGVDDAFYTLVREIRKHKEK
SMILES,IC50 (KRas^G12V) [nM],IC50 (KRas^G12D) [nM],IC50 (KRas^G12R) [nM]
"O[C@@H]1CCCN(c2nc(OCC34CCCN3CCC4)nc3c(F)c(-c4cccc5cccc(Cl)c45)ncc23)C1 [Example 902, (R)-1-(7-(8-chloronaphthalen-1-yl)-8-fluoro-2-((tetrahydro-1H-pyrrolizin-7a(5H)-yl)methoxy)pyrido[4,3-d]pyrimidin-4-yl) piperidin-3-ol]",902,834,876
"CCCCCCCCCCN(C)C(=O)OC[C@@H]1CC[C@@]2(COc3nc(N4CCC[C@@](C)(O)C4)c4cnc(-c5cc(O)cc6ccc(F)c(CC)c56)c(F)c4n3)CCCN12 [Example 894, ((3S,7aR)-7a-(((7-(8-ethyl-7-fluoro-3-hydroxynaphthalen-1-yl)-8-fluoro-4-((R)-3-hydroxy-3-methylpiperidin-1-yl)pyrido[4,3-d]pyrimidin-2-yl)oxy)methyl)hexahydro-1H-pyrrolizin-3-yl)methyl decyl(methyl)carbamate]",119,121,177
"CCc1c(F)ccc2cc(O)cc(-c3ncc4c(NCc5cc(C(=O)N(C)C)n(CC#N)n5)nc(OC[C@@]56CCCN5C[C@H](F)C6)nc4c3F)c12 [Example 658, 1-(cyanomethyl)-3-(((7-(8-ethyl-7-fluoro-3-hydroxynaphthalen-1-yl)-8-fluoro-2-(((2R,7aS)-2-fluorotetrahydro-1H-pyrrolizin-7a(5H)-yl)methoxy)pyrido[4,3-d]pyrimidin-4-yl)amino)methyl)-N,N-dimethyl-1H-pyrazole-5-carboxamide]",7,224,65
"CCc1c(F)ccc2cc(O)cc(-c3ncc4c(CCc5ccnn5C)nc(OC[C@@]56CCCN5C[C@H](F)C6)nc4c3F)c12 [Example 545, 5-ethyl-6-fluoro-4-(8-fluoro-2-(((2R,7aS)-2-fluorotetrahydro-1H-pyrrolizin-7a(5H)-yl)methoxy)-4-(2-(1-methyl-1H-pyrazol-5-yl)ethyl)pyrido[4,3-d]pyrimidin-7-yl)naphthalen-2-ol]",431,4970,656
"CCc1c(F)ccc2cc(O)cc(-c3ncc4c(N5CCN(C)C[C@]6(C)CCC[C@@H]56)nc(OC[C@@]56CCCN5C[C@H](F)C6)nc4c3F)c12 [Example 866, 4-(4-((5aS,8aR)-4,5a-dimethyloctahydrocyclopenta[e][1,4]diazepin-1(2H)-yl)-8-fluoro-2-(((2R,7aS)-2-fluorotetrahydro-1H-pyrrolizin-7a(5H)-yl)methoxy)pyrido[4,3-d]pyrimidin-7-yl)-5-ethyl-6-fluoronaphthalen-2-ol]",3530,102,7350
"CCc1c(F)ccc2cc(OC)cc(-c3ncc4c(N5C[C@@H]6C[C@H](C5)[C@H](O)C6)nc(OC[C@@]56CCCN5C[C@H](F)C6)nc4c3F)c12 [Example 777, (1R,5R,6R)-3-(7-(8-ethyl-7-fluoro-3-methoxynaphthalen-1-yl)-8-fluoro-2-(((2R,7aS)-2-fluorohexahydro-1H-pyrrolizin-7a-yl)methoxy)pyrido[4,3-d]pyrimidin-4-yl)-3-azabicyclo[3.2.1]octan-6-ol]",1050,4190,1320
"O[C@@H]1C[C@H]2C[C@@H]1CN(c1nc(OC[C@@]34CCCN3C[C@H](F)C4)nc3c(F)c(-c4cccc5cc(C(F)F)ccc45)ncc13)C2 [Example 841, (1R,5R,6R)-3-(7-(6-(difluoromethyl)naphthalen-1-yl)-8-fluoro-2-(((2R,7aS)-2-fluorotetrahydro-1H-pyrrolizin-7a(5H)-yl)methoxy)pyrido[4,3-d]pyrimidin-4-yl)-3-azabicyclo[3.2.1]octan-6-ol]",34000,66900,62900
"CCc1cccc2cccc(-c3ncc4c(C5CCCCC5)nc(OCC56CCCN5CCC6)nc4c3F)c12 [Example 722, 4-cyclohexyl-7-(8-ethylnaphthalen-1-yl)-8-fluoro-2-((hexahydro-1H-pyrrolizin-7a-yl)methoxy)pyrido[4,3-d]pyrimidine]",42900,> 100000,30000
"CCc1c(F)ccc2cc(O)cc(-c3ncc4c(NCc5c[nH]nc5NC(=O)C5COC5)nc(OC[C@@]56CCCN5C[C@H](F)C6)nc4c3F)c12 [Example 649, N-(4-(((7-(8-ethyl-7-fluoro-3-hydroxynaphthalen-1-yl)-8-fluoro-2-(((2R,7aS)-2-fluorohexahydro-1H-pyrrolizin-7a-yl)methoxy)pyrido[4,3-d]pyrimidin-4-yl)amino)methyl)-1H-pyrazol-3-yl) oxetane-3-carboxamide]",9,85,38
"O[C@H]1CCCN(c2nc(OCC34CCCN3CCC4)nc3c(F)c(-c4cccc5cccc(Cl)c45)ncc23)C1 [Example 903, (S)-1-(7-(8-chloronaphthalen-1-yl)-8-fluoro-2-((tetrahydro-1H-pyrrolizin-7a(5H)-yl)methoxy)pyrido[4,3-d]pyrimidin-4-yl) piperidin-3-ol]",15100,9830,11200
"Fc1c(-c2cccc3cccc(F)c23)ncc2c(C3=CCCCC3)nc(OCC34CCCN3CCC4)nc12 [Example 524, 4-(cyclohex-1-en-1-yl)-8-fluoro-7-(8-fluoronaphthalen-1-yl)-2-((hexahydro-1H-pyrrolizin-7a-yl)methoxy)pyrido[4,3-d]pyrimidine]",70900,> 100000,> 100000
"O=S1(=O)NCC2(CCCN(c3nc(OCC45CCCN4CCC5)nc4c(F)c(-c5cccc6cccc(CO)c56)ncc34)C2)N1 (stereo not drawn) [Example 906, 7-(8-fluoro-7-(8-(hydroxymethyl)naphthalen-1-yl)-2-((tetrahydro-1H-pyrrolizin-7a(5H)-yl)methoxy)pyrido[4,3-d]pyrimidin-4-yl)-2-thia-1,3,7-triazaspiro[4.5]decane 2,2-dioxide]",247,66,646
"CCc1cccc2cccc(-c3ncc4c(C5CCCOCC5)nc(OCC56CCCN5CCC6)nc4c3F)c12 (racemic) [Example 723, rac-(R)-7-(8-ethylnaphthalen-1-yl)-8-fluoro-4-(oxepan-4-yl)-2-((tetrahydro-1H-pyrrolizin-7a(5H)-yl)methoxy)pyrido[4,3-d]pyrimidine]",42800,> 100000,27500
"CCc1c(F)ccc2cc(O)cc(-c3ncc4c(NCc5cn(C(=O)N(C)C)nc5NC(=O)C5CCC5O)nc(OC[C@@]56CCCN5C[C@H](F)C6)nc4c3F)c12 (stereo partly drawn) [Example 819, 4-(((7-(8-ethyl-7-fluoro-3-hydroxynaphthalen-1-yl)-8-fluoro-2-(((2R,7aS)-2-fluorotetrahydro-1H-pyrrolizin-7a(5H)-yl)methoxy)pyrido[4,3-d]pyrimidin-4-yl)amino)methyl)-3-(2-hydroxycyclobutane-1-carboxamido)-N,N-dimethyl-1H-pyrazole-1-carboxamide]",24,1130,86

# Source: patent US20260015350A1, “AZAQUINAZOLINE PAN-KRAS INHIBITORS” (Mirati Therapeutics, Inc., priority 2022, published 2026)
